Reference: ChEMBL document CHEMBL5126555, “Targeting breast cancer resistance protein (BCRP/ABCG2): Functional inhibitors and expression modulators” (Eur J Med Chem, 2022)
Values belong to the compound of their own block, whether it stands above or below them. Numbered stars: 1 amine (or outer) side, 2 acyl side, 3 side chain; on linkers, the order of the positions; unused ones are H or OH. Bridge positions count the residues as written; N and C are the ends. Square brackets hold non-standard residues; d marks the D form. Peptide text beside a SMILES is read from it. * marks the point of attachment. hTyr(3S-OH,4S-OH,3'-OSO3H) = N[C@H](C(=O)O)[C@H](O)[C@@H](O)c1ccc(O)c(OS(=O)(=O)O)c1; Orn(4R-OH,5R-OH) = O=C([C@H](C[C@@H](O)[C@@H](O)N[*:3])N[*:1])[*:2]; Pro(3S-OH,4S-Me) = C[C@H]1CN[C@H](C(=O)O)[C@H]1O; X1 = CCCCCOc1ccc(-c2cc(-c3ccc(C(=O)*)cc3)no2)cc1; Gln(3R-OH) = NC(=O)C[C@@H](O)[C@H](N)C(=O)O; Hyp = O=C(O)[C@@H]1C[C@@H](O)CN1

Columns and labels:
[1] = biological target: T1, Broad substrate specificity ATP-binding cassette transporter ABCG2 (Homo sapiens, UniProt Q9UNQ0); assay: Inhibition of ABCG2 (unknown origin) expressed in dog MDCK-II-BCRP cells incubated for 120 mins by transwell […] assay; type: cell-based
T1 sequence (Q9UNQ0 whole entry): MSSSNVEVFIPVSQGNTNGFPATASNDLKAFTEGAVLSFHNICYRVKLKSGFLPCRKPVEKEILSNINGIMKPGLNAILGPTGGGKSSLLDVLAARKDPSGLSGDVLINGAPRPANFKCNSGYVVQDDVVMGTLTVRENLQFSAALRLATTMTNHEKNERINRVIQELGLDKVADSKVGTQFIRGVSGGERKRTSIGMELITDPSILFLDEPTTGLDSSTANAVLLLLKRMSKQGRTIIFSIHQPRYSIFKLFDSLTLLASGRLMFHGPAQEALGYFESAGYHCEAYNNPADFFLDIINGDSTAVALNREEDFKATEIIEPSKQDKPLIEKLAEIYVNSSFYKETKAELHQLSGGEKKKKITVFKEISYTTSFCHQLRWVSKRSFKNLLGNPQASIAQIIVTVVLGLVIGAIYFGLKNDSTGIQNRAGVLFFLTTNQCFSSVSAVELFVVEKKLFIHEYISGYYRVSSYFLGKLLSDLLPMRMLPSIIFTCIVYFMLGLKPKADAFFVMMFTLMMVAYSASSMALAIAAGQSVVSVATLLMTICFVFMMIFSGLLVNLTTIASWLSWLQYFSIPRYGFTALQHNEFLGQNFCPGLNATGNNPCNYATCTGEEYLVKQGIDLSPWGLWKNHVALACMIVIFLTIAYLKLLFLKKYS

[2] = biological target: T1, Broad substrate specificity ATP-binding cassette transporter ABCG2; assay: Inhibition of ABCG2 (unknown origin) expressed in human HEK293 cells membrane vesicles assessed inhibition of BCRP- mediated transport of 3[H]-E1S for 1 mins using [3H]-estrone sulfate as substrate by liquid scintillation counter analysis; type: cell membranes, Membrane vesicle
[3] = biological target: T1, Broad substrate specificity ATP-binding cassette transporter ABCG2; assay: Inhibition of human ABCG2 expressed in human HEK293 cells membrane vesicles mediated transport of 3[H]-MTX for 2 mins using [3H]-methotrexate as substrate by rapid filtration technique; type: cell membranes, Membrane vesicle
[4] = biological target: T1, Broad substrate specificity ATP-binding cassette transporter ABCG2; assay: Inhibition of human ABCG2 expressed in dog MDCK-II-BCRP cells mediated pheophorbide A efflux preincubated with PhA followed by compound addition and measured after 60 mins by flow cytometry; type: cell-based
[5] = biological target: T1, Broad substrate specificity ATP-binding cassette transporter ABCG2; assay: Inhibition of human ABCG2 expressed in human SAOS-2 cells mediated mitoxantrone efflux using mitoxantrone as substrate by flow cytometry; type: cell-based
[6] = biological target: T1, Broad substrate specificity ATP-binding cassette transporter ABCG2; assay: Inhibition of ABCG2 (unknown origin) expressed in human HEK293 cells assessed as reversal of BCRP-mediated mitoxantrone resistance and measured after 90 mins by FACSflow cytometry analysis; type: cell-based
[7] = biological target: T1, Broad substrate specificity ATP-binding cassette transporter ABCG2; assay: Inhibition of ABCG2 (unknown origin) expressed in human MCF7/MX cells mediated mitoxantrone efflux assessed as intracellular mitoxantrone level and measured after 30 mins by FACSflow cytometry analysis; type: cell-based
[8] = biological target: T1, Broad substrate specificity ATP-binding cassette transporter ABCG2; assay: Inhibition of human ABCG2 expressed in dog MDCK-II-BCRP cells mediated pheophorbide A efflux by flow cytometry; type: cell-based
[9] = biological target: T1, Broad substrate specificity ATP-binding cassette transporter ABCG2; assay: Inhibition of ABCG2 (unknown origin) expressed in human HEK293 cells mediated pheophorbide A efflux and measured after 90 mins by FACSflow cytometry; type: cell-based
[10] = biological target: T1, Broad substrate specificity ATP-binding cassette transporter ABCG2; assay: Inhibition of ABCG2 (unknown origin) expressed in human HEK293 cells membrane vesicles assessed inhibition of BCRP- mediated transport of 3[H]-E1S for 1 mins using [3H]-estrone sulfate as substrate by rapid filtration technique; type: cell membranes, Membrane vesicle
[11] = biological target: T1, Broad substrate specificity ATP-binding cassette transporter ABCG2; assay: Inhibition of ABCG2 (unknown origin) expressed in human HEK cells membrane vesicle assessed as inhibition of BCRP- mediated transport of [3H]-E3S using [3H]-oestrone 3-sulfate as radiolabeled substrate by liquid scintillation counter analysis; type: cell membranes
[12] = biological target: T1, Broad substrate specificity ATP-binding cassette transporter ABCG2; assay: Inhibition of human ABCG2 expressed in human HEK293 cells mediated pheophorbide A efflux and measured after 90 mins by FACSflow cytometry

Compound: C[C@@H](c1nc(-c2ccc(C#N)cc2)cs1)[C@](O)(Cn1cncn1)c1cc(F)ccc1F [ISAVUCONAZOLE]
IC50 [2]: 11 µM

Compound: CCC(C)n1ncn(-c2ccc(N3CCN(c4ccc(OCC5COC(Cn6cncn6)(c6ccc(Cl)cc6Cl)O5)cc4)CC3)cc2)c1=O (configuration not stated) [ITRACONAZOLE]
IC50 [2]: 2 µM

Compound: Cc1c(OCC(F)(F)F)ccnc1C[S+]([O-])c1nc2ccccc2[nH]1 (configuration not stated) [LANSOPRAZOLE]
IC50 [3]: 14.4 µM

Compound: Cc1cccc(C)c1OCC(=O)N[C@@H](Cc1ccccc1)[C@@H](O)C[C@H](Cc1ccccc1)NC(=O)[C@H](C(C)C)N1CCCNC1=O [LOPINAVIR]
IC50 [4]: 7.6 µM

Compound: CCCCCOc1ccc(-c2cc(-c3ccc(C(=O)N[C@H]4C[C@@H](O)[C@@H](O)NC(=O)[C@@H]5[C@@H](O)[C@@H](C)CN5C(=O)[C@H]([C@H](O)CC(N)=O)NC(=O)[C@H]([C@H](O)[C@@H](O)c5ccc(O)c(OS(=O)(=O)O)c5)NC(=O)[C@@H]5C[C@@H](O)CN5C(=O)[C@H]([C@@H](C)O)NC4=O)cc3)no2)cc1 [MICAFUNGIN] (X1-[Orn(4R-OH,5R-OH)]T[Hyp][hTyr(3S-OH,4S-OH,3'-OSO3H)][Gln(3R-OH)][Pro(3S-OH,4S-Me)]; lactam 1-C)
IC50 [2]: 21 µM

Compound: CN(C)C(=O)CCSC(SCCC(=O)O)c1cccc(/C=C/c2ccc3ccc(Cl)cc3n2)c1 (configuration not stated) [MK-571]
IC50 [5]: 50 µM

Compound: COC(=O)C1=C(C)NC(C)=C(C(=O)OCCN(C)Cc2ccccc2)C1c1cccc([N+](=O)[O-])c1 (configuration not stated) [NICARDIPINE]
IC50 [6]: 4.8 µM

Compound: COCCOC(=O)C1=C(C)NC(C)=C(C(=O)OC(C)C)C1c1cccc([N+](=O)[O-])c1 (configuration not stated) [NIMODIPINE]
IC50 [6]: 13.7 µM

Compound: CCOC(=O)C1=C(C)NC(C)=C(C(=O)OC)C1c1cccc([N+](=O)[O-])c1 (configuration not stated) [NITRENDIPINE]
IC50 [7]: 21.1 µM

Compound: COc1ccc2[nH]c([S+]([O-])Cc3ncc(C)c(OC)c3C)nc2c1 (configuration not stated) [OMEPRAZOLE]
IC50 [3]: 17.6 µM

Compound: CC[C@@H]([C@H](C)O)n1ncn(-c2ccc(N3CCN(c4ccc(OC[C@@H]5CO[C@@](Cn6cncn6)(c6ccc(F)cc6F)C5)cc4)CC3)cc2)c1=O [POSACONAZOLE]
IC50 [2]: 6 µM

Compound: COCCCOc1ccnc(C[S+]([O-])c2nc3ccccc3[nH]2)c1C (configuration not stated) [RABEPRAZOLE]
IC50 [3]: 8.5 µM

Compound: CC(C)=CCC/C(C)=C/CNCCNC1C2CC3CC(C2)CC1C3 (configuration not stated) [SQ109]
IC50 [10]: 5.5 µM

Compound: O=C(O)c1cc(/N=N/c2ccc(S(=O)(=O)Nc3ccccn3)cc2)ccc1O [SULFASALAZINE]
IC50 [11]: 0.46 µM

Compound: CSc1ccc2c(c1)N(CCC1CCCCN1C)c1ccccc1S2 (configuration not stated) [THIORIDAZINE]
IC50 [10]: 6.6 µM

The remaining lines, values ahead:

IC50 [1]: 52 µM
Compound: CC(=O)O[C@H]1C[C@@]2(C)[C@@H](C[C@@H](O)[C@H]3[C@@]4(C)CC[C@@H](O)[C@@H](C)[C@@H]4CC[C@@]32C)/C1=C(\CCC=C(C)C)C(=O)O [FUSIDIC ACID]

IC50 [3]: 5.5 µM
Compound: COc1ccnc(C[S+]([O-])c2nc3ccc(OC(F)F)cc3[nH]2)c1OC (configuration not stated) [PANTOPRAZOLE]

IC50 [8]: 1.5 µM
Compound: Cc1cc(/C=C/C#N)cc(C)c1Nc1ccnc(Nc2ccc(C#N)cc2)n1 [RILPIVIRINE]

IC50 [9]: 1.9 µM
Compound: CO[C@H]1C[C@@H]2CC[C@@H](C)[C@@](O)(O2)C(=O)C(=O)N2CCCC[C@H]2C(=O)O[C@H]([C@H](C)C[C@@H]2CC[C@@H](O)[C@H](OC)C2)CC(=O)[C@H](C)/C=C(\C)[C@@H](O)[C@@H](OC)C(=O)[C@H](C)C[C@H](C)/C=C/C=C/C=C/1C [SIROLIMUS]

IC50 [9]: 3.3 µM
Compound: C=CC[C@@H]1/C=C(\C)C[C@H](C)C[C@H](OC)[C@H]2O[C@@](O)(C(=O)C(=O)N3CCCC[C@H]3C(=O)O[C@H](/C(C)=C/[C@@H]3CC[C@@H](O)[C@H](OC)C3)[C@H](C)[C@@H](O)CC1=O)[C@H](C)C[C@@H]2OC [TACROLIMUS ANHYDROUS]

IC50 [12]: 3 µM
Compound: COc1cc(O)c2c(=O)cc(-c3ccccc3)oc2c1 [TECHTOCHRYSIN]

IC50 [10]: > 100 µM
Compound: COc1cc(C(=O)C(=O)N(C)[C@@H](Cc2ccc(Cl)cc2)C(=O)N(Cc2ccccc2)C(CCc2ccncc2)CCc2ccncc2)cc(OC)c1OC [TIMCODAR]
